Results from PMC5639367, “Structure‐Guided Design of Peptides as Tools to Probe the Protein–Protein Interaction between Cullin‐2 and Elongin BC Substrate Adaptor in Cullin RING E3 Ubiquitin Ligases” (Chemmedchem, 2017).
Read-outs that look alike come from different tables or passages of the source. Square brackets hold non-standard residues; d marks the D form. Ends that are not written are not given here. Peptide text beside a SMILES is read from it. Chg = N[C@H](C(=O)O)C1CCCCC1; Pen = CC(C)(S)[C@H](N)C(=O)O; Phg = N[C@H](C(=O)O)c1ccccc1; Tle = CC(C)(C)[C@H](N)C(=O)O; Nva = CCC[C@H](N)C(=O)O

Columns and labels:
[1] = biological target: T1, VBC (Homo sapiens, UniProt P40337+Q15369+Q15370); test: Biolayer interferometry (BLI) binding of peptides to immobilised VBC
T1 construct: made in house; host or cells: E. coli BL21(DE3)
Procedure: Biolayer interferometry: BLI experiments were performed in an Octet RED384 (FòrteBio). Biotinylated VBC (25 μg mL^−1) was immobilized on Super Streptavidin‐coated biosensor (FòrteBio). The experiments were conducted at 25 °C, in 20 mM HEPES pH 7.6, 100 mM NaCl, 1 mM DTT and 0.02 % (v/v) Tween‐20 buffer. The response of the reference tips was subtracted from the signal to account for unspecific binding. The data points were fitted using a 1:1 model. […]
peptides. Biotinylated VBC was immobilised on the tips and the peptides were tested in a concentration range from 27 µM to 7 mM. The different colours represent the different concentrations and corresponding responses. The assay was performed […]
Figure S2 – Biolayer interferomery experiments with the alanine scan peptides.
Biotinylated VBC was immobilised on the tips and the peptides were tested in a concentration range from 27 µM to 7 mM. The different colours represent the different concentrations and corresponding responses. The assay was performed in […]
leucine replacement versus VBC tested on a concentration-dependent assay. […]

[2] = biological target: T2, native interaction between VBC and Cul2 (Homo sapiens, UniProt P40337+Q15369+Q15370); test: AlphaLISA competition assay to displace Cul2 from VBC; format: binding; settings: V6×HisBC 500 nM, biotinylated Rbx1-Cul2 150 nM
T2 construct: made in house; host or cells: E. coli BL21(DE3) for VBC
Procedure: AlphaLISA: Anti‐His6 acceptor beads and Streptavidin donor beads (PerkinElmer) were used. […] The final volume of each well was 20 μL. The plate was then read in a PHERAstar FS (BMG LABTECH). Each of the competitors was titrated in quadruplicate. The fitting and IC50 determination were performed in GraphPad Prism 7 (GraphPad Software, La Jolla, CA, USA).

[3] = Precipitation of peptides in the conditions of the BLI experiment; format: physicochemical; settings: 20 mM HEPES pH 7.6, 100 mM NaCl, 1 mM DTT, 0.02 % Tween-20, 25 °C; visual
Procedure: Based on the structural analysis of the Cul2‐VBC interface, we first aimed to recapitulate the interaction using N‐terminal Cul2 peptides varying from three to eleven residues. […] Thus, the next step was to enhance the binding affinity of the peptides toward VBC.
Biolayer interferometry: BLI experiments were performed in an Octet RED384 (FòrteBio). Biotinylated VBC (25 μg mL^−1) was immobilized on Super Streptavidin‐coated biosensor (FòrteBio). The experiments were conducted at 25 °C, in 20 mM HEPES pH 7.6, 100 mM NaCl, 1 mM DTT and 0.02 % (v/v) Tween‐20 buffer. The response of the reference tips was subtracted from the signal to account for unspecific binding. The data points were fitted using a 1:1 model.

[4] = 8-mer peptide variants replacing Leu3, BLI, biotinylated VBC on Super Streptavidin biosensor, peptides 27 µM to 7 mM, 20 mM HEPES pH 7.6, 100 mM NaCl, 1 mM DTT, 0.02% Tween-20, 25 °C, 1:1 model, read-out: K d

Kd [1, 4]	Compound	also measured
1900 ± 200 µM	CCC[C@H](NC(=O)[C@H](CO)NC(=O)[C@@H](N)CCSC)C(=O)N[C@@H](CCCCN)C(=O)N1CCC[C@H]1C(=O)N[C@@H](CCCNC(=N)N)C(=O)N[C@H](C(=O)N[C@H](C(N)=O)C(C)C)C(C)C [F] (H-MS[Nva]KPRVV-NH2)	
900 ± 100 µM	CSCC[C@H](N)C(=O)N[C@@H](CO)C(=O)N[C@H](C(=O)N[C@@H](CCCCN)C(=O)N1CCC[C@H]1C(=O)N[C@@H](CCCNC(=N)N)C(=O)N[C@H](C(=O)N[C@H](C(N)=O)C(C)C)C(C)C)C(C)(C)C [G] (H-MS[Tle]KPRVV-NH2)	
2100 ± 600 µM	CSCC[C@H](N)C(=O)N[C@@H](CO)C(=O)N[C@H](C(=O)N[C@@H](CCCCN)C(=O)N1CCC[C@H]1C(=O)N[C@@H](CCCNC(=N)N)C(=O)N[C@H](C(=O)N[C@H](C(N)=O)C(C)C)C(C)C)c1ccccc1 [H] (H-MS[Phg]KPRVV-NH2)	
8900 ± 700 µM	CSCC[C@H](N)C(=O)N[C@@H](CO)C(=O)N[C@H](C(=O)N[C@@H](CCCCN)C(=O)N1CCC[C@H]1C(=O)N[C@@H](CCCNC(=N)N)C(=O)N[C@H](C(=O)N[C@H](C(N)=O)C(C)C)C(C)C)C1CCCCC1 [I] (H-MS[Chg]KPRVV-NH2)	
	CSCC[C@H](N)C(=O)N[C@@H](CO)C(=O)N[C@H](C(=O)N[C@@H](CCCCN)C(=O)N1CCC[C@H]1C(=O)N[C@@H](CCCNC(=N)N)C(=O)N[C@H](C(=O)N[C@H](C(N)=O)C(C)C)C(C)C)C(C)(C)S [Peptide J] (H-MS[Pen]KPRVV-NH2)	Displacement of Cul2 from VBC in AlphaLISA (in words) [2]: displace Cul2
3100 ± 200 µM	MSFKPRVV-NH2 [C]	
	MSLKPRAV-NH2	Kd [1]: 2100 ± 600 µM
	MSLKPRVVD [9‐mer]	Precipitation in the conditions of the BLI experiment (in words) [3]: formed a white precipitate
	MSLKPRVVDFD [11‐mer]	Precipitation in the conditions of the BLI experiment (in words) [3]: formed a white precipitate
7400 ± 400 µM	MSYKPRVV-NH2 [D]	
